From US7235548B2, “Compounds and their use as positive AMPA receptor modulators” (NeuroSearch A/S, priority 1998, dated 2007)

Columns and labels:
[1] = target: ionotropic quisqualate (AMPA) receptors; experiment: In vitro inhibition of 3H-AMPA binding; conditions: 5 nM 3H-AMPA, rat cerebral cortex membranes, 30 min at 2° C.; read-out: IC50 (concentration of the test substance which inhibits the specific binding of 3H-AMPA by 50%)
Source text: L-glutamate (GLU) is the major excitatory neurotransmitter in the mammalian central nervous system. From electrophysiological- and binding studies, there appear to be at least three subtypes of GLU receptors, tentatively named N-methyl-D-aspartate (NMDA)-, quisqualate- and kainate receptors. GLU receptor subtypes sensitive to quisqualate and kainate as a group are often referred to as non-NMDA receptors. Receptor binding studies using the labelled agonists ^3H-AMPA (α-amino-3-hydroxy-5-methyl-4-isoxazolepropionic acid) (for quisqualate receptors) and ^3H-kainate (for kainate receptors) have shown different antagonist selectivities and regional distribution. AMPA has been known for several years to be a potent and selective agonist at the traditionally named quisqualate receptors. Activation of quisqualate receptors by AMPA is associated with Na^+ influx and K^+ efflux leading to depolarization.
The non-NMDA receptors have recently been reclassified to include the quisqualate activated metabotropic receptor type, linked to the inositol triphosphate and diacylglycerate metabolism. […] Selective activation of the metabotropic type has been claimed for trans-ACPD. Recently, the potent and competitive non-NMDA receptor antagonists CNQX and NBQX have been described, and CNQX have been reported not to block the effect of quisqualate at the metabotropic receptor subtype. ^3H-AMPA is a selective radioligand for labelling the ionotropic quisqualate (AMPA) receptors.
Preparations are performed at 0–4° C. unless otherwise indicated. Cerebral cortex from male Wistar rats (150–200 g) is homogenized for 5–10 sec in 20 ml Tris-HCl (30 mM, pH 7.4) using an Ultra-Turrax homogenizer. The suspension is centrifuged at 27,000×g for 15 min and the pellet is washed three times with buffer (centrifuged at 27,000×g for 10 min). The washed pellet is homogenized in 20 ml of buffer and incubated on a water bath (37° C.) for 30 min to remove endogenous glutamate and then centrifuged for 10 min at 27,000×g. The pellet is then homogenized in buffer and centrifuged at for 10 min at 27,000×g. The final pellet is resuspended in 30 ml buffer and the preparation is frozen and stored at −20° C.
The membrane preparation is thawed and centrifuged at 2° C. for 10 min at 27,000×g for 10 min. The pellet is washed twice with 20 ml 30 mM Tris-HCl containing 2.5 mM CaCl2, pH 7.4 using an Ultra-Turrax homogenizer and centrifuged for 10 min at 27,000×g. The final pellet is resuspended in 30 mM Tris-HCl containing 2.5 mM CaCl2 and 100 mM KSCN, pH 7.4 (100 ml per g of original tissue) and used for binding assays. Aliquots of 0.5 (0.2) ml are added to 25 (20) μl of test solution and 25(20) μl of ^3H-AMPA (5 nM, final concentration), mixed and incubated for 30 min at 2° C. Non-specific binding is determined using L-glutamate (0.6 mM, final concentration). After incubation the 550 μl samples are added 5 ml of ice-cold buffer and poured directly onto Whatman GF/C glass fibre filters under suction and immediately washed with 5 ml of ice-cold buffer. The 240 μl samples are filtered over glass fibre filter using a Skatron cell harvrester. The filters are washed with 3 ml ice-cold buffer. The amount of radioactivity on the filters is determined by conventional liquid scintillation counting. Specific binding is total binding minus non-specific binding.
The test value will be given as the IC50 (the concentration (μM) of the test substance which inhibits the specific binding of ^3H-AMPA by 50%)

AMPA receptor = experiment: Voltage clamp (whole cell patch clamp), current induced by AMPA in cultured mouse neocortical neurons; assay type: cell-based; conditions: for reversibility of the potentiation: after wash out of the compound; for potentiation of the current induced by application of 30 μM AMPA: holding voltage −60 mV
Procedure: Experiments were performed in voltage clamp using conventional whole cell patch clamp methods (Hamill et al., 1981), essentially as described previously (Mathiesen et al., 1998). The following salt solutions were used (mM): NaCl (140), KCl (4), CaCl2 (2), MgCl2 (1), Sucrose (30), Tetrodotoxin (0.0003), Bicuculline Methiodide (0.005) and HEPES (10, pH 7.4). Intracellular solution (mM): CsCl (120), CsF (20), MgCl2 (2), EGTA (10), HEPES (10, pH=7.2).
Mouse neocortical neurons were cultured essentially as described by Drejer et al. (1987). Briefly, the forebrains from embryonic (E17) NMRI mice were removed under sterile conditions. The tissue was chopped in 0.4 mm cubes and the triturated with trypsin (12.5 μg/ml) and DNAse (2.5 μg/ml), 15 min, 37° C. The cells were suspended at a concentration of 1×10^6 cells/ml in a slightly modified DMEM which contained horse serum (10% (v/v)), penicillin (333 U/ml), paraaminobenzoic acid (1 mg/ml), L-glutamine (0.5 mM), insulin (0.08 U/ml) and KCl (23.8 mM). The cell suspension was subsequently inoculated into poly-L-lysine coated 35 mm Petri dishes (2 ml/dish). Glass coverslips (3.5 mm) were placed in the dishes before coating. After 24 hr in culture, the medium was replaced by freshly made medium containing 1% N2 supplement instead of serum.
The cells were kept in culture for 7–14 days at 37° C. (5% CO2/95% O2) before experiments were carried out.
Electronics, programs and data acquisition: The amplifier used was the EPC-9 (HEKA-electronics, Lambrect, Germany) run by a Power Macintosh G3 computer via an ITC-16 interface. Experimental conditions were set with the Pulse-software accompanying the amplifier. Data were low pass filtered and sampled directly to hard-disk at a rate of 3 times the cut-off frequency.
Pipettes and electrodes: Pipettes were pulled from borosilicate glass (Modulohm, Copenhagen, Denmark) using a horizontal electrode puller (Zeitz-Instrumente, Augsburg, Germany). The pipette resistances were 1.7–2.4 MW in the salt solutions used in these experiments. The pipette electrode was a chloridized silver wire, and the reference was a silverchloride pellet electrode (In Vivo Metric, Healdsburg, USA) fixed to the experimental chamber. The electrodes were zeroed with the open pipette in the bath just prior to sealing.
Experimental procedure: Coverslips were transferred to a […] experimental chamber mounted on the stage of an inverted microscope (IMT-2, Olympus) supplied with Nomarski optics. The neurons were continuously superfused with extracellular saline at a rate of 2.5 ml/min. After giga-seal formation (1–5 GW, success-rate≈90%) the whole cell configuration was attained by suction.
The cells were held at a holding voltage of −60 mV and at the start of each experiment the current was continuously measured for at least 30 sec to ensure a stable leak current. AMPA-containing solutions were delivered to the chamber through a custom-made gravity-driven flowpipe, the tip of which was placed approximately 50 μm from the cell. Application was triggered when the tubing connected to the flow pipe was compressed by a valve controlled by the Pulse-software. AMPA (30 μM) was applied for 1 sec every 45 sec. After obtainment of responses of a repeatable amplitude the compound to be tested was included in both the chamber and in the AMPA-containing solution. The compound was present until responses of a new repeatable was obtained.
The sample interval in all experiments was 310 μsec.
All experiments were performed at room temperature (20–25° C.).

IC50 [1]	SMILES	concentration dependence of the effect (AMPA receptor; FIG. 8)	reversibility of the potentiation (AMPA receptor)	potentiation of the current induced by application of 30 μM AMPA (AMPA receptor; compound 3 μM)	persistence of the effect after wash out (AMPA receptor; compound 3 μM)	potentiation of the current induced by application of 30 μM AMPA (AMPA receptor; compound 10 μM)
8.5 µM	CN1CCN(S(=O)(=O)c2ccc3c(c2)S(=O)(=O)NC(C2CCCCC2)N3)CC1 (stereo not drawn) [Compound 61, 3-Cyclohexyl-7-(4′-methylpiperazino)sulfonyl-1,2,3,4-tetrahydro-1,2,4-benzothiadiazine-1,1-dioxide]	–	–	–	–	–
33 µM	Cc1cc2c(cc1S(=O)(=O)N1CCCCC1)S(=O)(=O)NC(C1CCCC1)N2 (stereo not drawn) [Compound 114, 3-Cyclopentyl-6-methyl-7-piperidinosulfonyl-1,2,3,4-tetrahydro-1,2,4-benzothia-diazine-1,1-dioxide]	concentration-dependent	reversible	potentiated	–	–
6 µM	O=S1(=O)NC(C2CCCCC2)Nc2ccc(S(=O)(=O)N3CCOCC3)cc21 (stereo not drawn) [Compound 63, 3-Cyclohexyl-7-morpholinosulfonyl-1,2,3,4-tetrahydro-1,2,4-benzothiadiazine-1,1-dioxide]	–	reversible	potentiated	persits for several minutes after wash out	–
7 µM	Cc1cc2c(cc1S(=O)(=O)N1CCOCC1)S(=O)(=O)NC(C1CCCCC1)N2 (stereo not drawn) [Compound 115, 3-Cyclohexyl-6-methyl-7-morpholinosulfonyl-1,2,3,4-tetrahydro-1,2,4-benzothiadiazine-1,1-dioxide]	–	reversible	–	–	potentiated
